What all share (test): G' assay (10 uM PL peptide), results of TABLE 7 and TABLE 12
What all share (assay type): binding

Assay [1] deals with T1, PDZ protein (GST-PDZ fusion) (Homo sapiens, UniProt Q12923).
T1 construct: made in house; host or cells: E. coli (DH5alpha, BL21 or JM109)
In outline: (§1)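 Same steps as the G-zero format, apart from a peptide concentration of 10 uM in place of 20 uM in step 2. Amino-terminally biotinylated PL peptides bind GST-PDZ fusions, and retained peptide is quantified by 450 nm absorbance.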

Assay [2] relates to PDZ protein (GST-PDZ fusion). In outline:
as §1

Assay [3] concerns the target T2, PDZ protein (GST-PDZ fusion) (Homo sapiens, UniProt Q5TCQ9).
T2 construct: made in house; host or cells: E. coli (DH5alpha, BL21 or JM109)
T2 sequence (Q5TCQ9 1-1481): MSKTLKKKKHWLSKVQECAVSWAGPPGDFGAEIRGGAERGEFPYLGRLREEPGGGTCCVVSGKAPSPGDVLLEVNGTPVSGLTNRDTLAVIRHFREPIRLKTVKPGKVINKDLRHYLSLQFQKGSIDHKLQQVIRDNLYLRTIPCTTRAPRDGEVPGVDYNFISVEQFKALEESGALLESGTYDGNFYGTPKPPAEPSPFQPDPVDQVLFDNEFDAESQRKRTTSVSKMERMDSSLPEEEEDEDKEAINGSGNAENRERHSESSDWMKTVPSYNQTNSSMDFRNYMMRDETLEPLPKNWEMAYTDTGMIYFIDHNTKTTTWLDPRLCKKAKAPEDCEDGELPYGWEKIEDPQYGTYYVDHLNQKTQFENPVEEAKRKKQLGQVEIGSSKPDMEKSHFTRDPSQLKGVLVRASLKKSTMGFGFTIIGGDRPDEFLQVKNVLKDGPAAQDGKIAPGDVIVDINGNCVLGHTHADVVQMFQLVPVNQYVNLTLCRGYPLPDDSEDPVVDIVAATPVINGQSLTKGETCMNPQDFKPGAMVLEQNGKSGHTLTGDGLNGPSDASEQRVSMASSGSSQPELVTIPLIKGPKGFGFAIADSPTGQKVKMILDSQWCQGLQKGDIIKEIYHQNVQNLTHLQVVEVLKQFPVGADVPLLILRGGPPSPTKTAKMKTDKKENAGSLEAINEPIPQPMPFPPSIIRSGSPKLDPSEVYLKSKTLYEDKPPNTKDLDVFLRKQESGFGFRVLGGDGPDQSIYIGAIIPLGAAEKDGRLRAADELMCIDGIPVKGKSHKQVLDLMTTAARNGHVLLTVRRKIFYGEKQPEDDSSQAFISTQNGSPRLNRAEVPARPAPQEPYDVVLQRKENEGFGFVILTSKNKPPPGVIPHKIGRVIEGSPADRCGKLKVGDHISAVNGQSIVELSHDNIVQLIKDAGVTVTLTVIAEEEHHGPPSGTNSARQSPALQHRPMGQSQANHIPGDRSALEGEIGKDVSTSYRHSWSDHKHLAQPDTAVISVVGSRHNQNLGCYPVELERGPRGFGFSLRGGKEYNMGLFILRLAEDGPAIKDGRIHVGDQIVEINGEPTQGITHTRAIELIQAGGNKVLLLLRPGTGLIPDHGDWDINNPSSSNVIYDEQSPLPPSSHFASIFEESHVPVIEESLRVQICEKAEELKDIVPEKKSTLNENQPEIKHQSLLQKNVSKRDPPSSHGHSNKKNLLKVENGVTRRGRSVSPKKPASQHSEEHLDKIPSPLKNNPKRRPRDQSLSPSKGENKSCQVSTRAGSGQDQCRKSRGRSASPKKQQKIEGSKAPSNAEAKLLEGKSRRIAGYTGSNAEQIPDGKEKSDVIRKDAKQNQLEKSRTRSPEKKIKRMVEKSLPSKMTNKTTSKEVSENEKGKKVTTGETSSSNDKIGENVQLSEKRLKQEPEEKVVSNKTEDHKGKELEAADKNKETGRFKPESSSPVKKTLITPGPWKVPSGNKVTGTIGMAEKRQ
The gist of the method: as §1

For assay [4], the target named is T3, PDZ protein (GST-PDZ fusion) (Homo sapiens, UniProt Q6P0Q8).
T3 construct: made in house; host or cells: E. coli (DH5alpha, BL21 or JM109)
The gist of the method: as §1

[5] abbreviates: PDZ KIAA807, PDZ Domain not given.
[6] abbreviates: PDZ HEMBA 1003117, PDZ Domain 1.
[7] abbreviates: PDZ Unnamed Protein, PDZ Domain 2.

Ends that are not written are not given here. Peptide text beside a SMILES is read from it. * marks the point of attachment. Biotin = O=C1N[C@H]2[C@H](CS[C@H]2CCCCC(=O)*)N1

T3 sequence (Q6P0Q8 whole entry, the tested form may be a part): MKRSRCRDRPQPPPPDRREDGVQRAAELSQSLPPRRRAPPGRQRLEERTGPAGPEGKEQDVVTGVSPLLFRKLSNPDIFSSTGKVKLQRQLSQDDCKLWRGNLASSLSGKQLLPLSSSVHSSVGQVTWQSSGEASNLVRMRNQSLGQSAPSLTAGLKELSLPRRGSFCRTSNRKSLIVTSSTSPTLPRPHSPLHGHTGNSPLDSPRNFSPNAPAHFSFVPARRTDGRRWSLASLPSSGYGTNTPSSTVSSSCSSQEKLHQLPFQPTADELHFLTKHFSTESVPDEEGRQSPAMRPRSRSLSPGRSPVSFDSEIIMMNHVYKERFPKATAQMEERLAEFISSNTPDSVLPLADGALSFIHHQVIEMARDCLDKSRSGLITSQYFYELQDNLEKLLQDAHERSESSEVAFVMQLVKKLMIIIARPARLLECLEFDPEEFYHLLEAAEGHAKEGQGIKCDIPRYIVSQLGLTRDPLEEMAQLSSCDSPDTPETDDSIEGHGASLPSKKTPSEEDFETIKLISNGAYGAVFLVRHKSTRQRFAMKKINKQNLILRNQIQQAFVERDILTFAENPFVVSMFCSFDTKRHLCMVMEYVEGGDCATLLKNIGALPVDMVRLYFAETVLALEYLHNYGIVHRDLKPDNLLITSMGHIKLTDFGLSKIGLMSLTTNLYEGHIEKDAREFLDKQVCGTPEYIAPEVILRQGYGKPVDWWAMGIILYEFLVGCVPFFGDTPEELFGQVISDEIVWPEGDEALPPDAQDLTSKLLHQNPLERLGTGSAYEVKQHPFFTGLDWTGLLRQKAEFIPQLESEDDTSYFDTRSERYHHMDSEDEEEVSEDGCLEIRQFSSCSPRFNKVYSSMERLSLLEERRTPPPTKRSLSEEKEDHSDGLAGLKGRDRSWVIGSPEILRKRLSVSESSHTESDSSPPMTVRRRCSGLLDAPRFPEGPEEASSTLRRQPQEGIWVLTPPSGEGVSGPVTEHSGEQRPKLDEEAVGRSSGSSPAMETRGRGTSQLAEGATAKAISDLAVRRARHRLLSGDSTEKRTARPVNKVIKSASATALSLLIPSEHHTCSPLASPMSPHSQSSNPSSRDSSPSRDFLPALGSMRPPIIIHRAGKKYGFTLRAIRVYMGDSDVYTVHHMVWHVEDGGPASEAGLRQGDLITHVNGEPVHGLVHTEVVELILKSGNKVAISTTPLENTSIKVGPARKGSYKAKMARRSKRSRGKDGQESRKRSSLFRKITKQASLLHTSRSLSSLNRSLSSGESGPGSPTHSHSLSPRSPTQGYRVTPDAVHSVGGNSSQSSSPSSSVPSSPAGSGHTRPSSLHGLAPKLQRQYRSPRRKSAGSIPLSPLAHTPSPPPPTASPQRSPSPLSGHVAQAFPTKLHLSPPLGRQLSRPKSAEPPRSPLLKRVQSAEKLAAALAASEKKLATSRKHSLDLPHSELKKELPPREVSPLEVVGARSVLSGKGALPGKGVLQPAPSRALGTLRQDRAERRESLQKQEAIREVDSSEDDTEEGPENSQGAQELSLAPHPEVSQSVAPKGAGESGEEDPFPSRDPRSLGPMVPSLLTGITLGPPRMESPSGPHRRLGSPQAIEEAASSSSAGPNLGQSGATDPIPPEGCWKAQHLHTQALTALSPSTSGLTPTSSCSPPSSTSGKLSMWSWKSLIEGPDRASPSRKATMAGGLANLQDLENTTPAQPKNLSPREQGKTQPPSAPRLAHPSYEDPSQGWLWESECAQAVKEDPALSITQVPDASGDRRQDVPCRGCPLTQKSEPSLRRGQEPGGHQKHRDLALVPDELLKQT
T1 sequence (Q12923 whole entry, the tested form may be a part): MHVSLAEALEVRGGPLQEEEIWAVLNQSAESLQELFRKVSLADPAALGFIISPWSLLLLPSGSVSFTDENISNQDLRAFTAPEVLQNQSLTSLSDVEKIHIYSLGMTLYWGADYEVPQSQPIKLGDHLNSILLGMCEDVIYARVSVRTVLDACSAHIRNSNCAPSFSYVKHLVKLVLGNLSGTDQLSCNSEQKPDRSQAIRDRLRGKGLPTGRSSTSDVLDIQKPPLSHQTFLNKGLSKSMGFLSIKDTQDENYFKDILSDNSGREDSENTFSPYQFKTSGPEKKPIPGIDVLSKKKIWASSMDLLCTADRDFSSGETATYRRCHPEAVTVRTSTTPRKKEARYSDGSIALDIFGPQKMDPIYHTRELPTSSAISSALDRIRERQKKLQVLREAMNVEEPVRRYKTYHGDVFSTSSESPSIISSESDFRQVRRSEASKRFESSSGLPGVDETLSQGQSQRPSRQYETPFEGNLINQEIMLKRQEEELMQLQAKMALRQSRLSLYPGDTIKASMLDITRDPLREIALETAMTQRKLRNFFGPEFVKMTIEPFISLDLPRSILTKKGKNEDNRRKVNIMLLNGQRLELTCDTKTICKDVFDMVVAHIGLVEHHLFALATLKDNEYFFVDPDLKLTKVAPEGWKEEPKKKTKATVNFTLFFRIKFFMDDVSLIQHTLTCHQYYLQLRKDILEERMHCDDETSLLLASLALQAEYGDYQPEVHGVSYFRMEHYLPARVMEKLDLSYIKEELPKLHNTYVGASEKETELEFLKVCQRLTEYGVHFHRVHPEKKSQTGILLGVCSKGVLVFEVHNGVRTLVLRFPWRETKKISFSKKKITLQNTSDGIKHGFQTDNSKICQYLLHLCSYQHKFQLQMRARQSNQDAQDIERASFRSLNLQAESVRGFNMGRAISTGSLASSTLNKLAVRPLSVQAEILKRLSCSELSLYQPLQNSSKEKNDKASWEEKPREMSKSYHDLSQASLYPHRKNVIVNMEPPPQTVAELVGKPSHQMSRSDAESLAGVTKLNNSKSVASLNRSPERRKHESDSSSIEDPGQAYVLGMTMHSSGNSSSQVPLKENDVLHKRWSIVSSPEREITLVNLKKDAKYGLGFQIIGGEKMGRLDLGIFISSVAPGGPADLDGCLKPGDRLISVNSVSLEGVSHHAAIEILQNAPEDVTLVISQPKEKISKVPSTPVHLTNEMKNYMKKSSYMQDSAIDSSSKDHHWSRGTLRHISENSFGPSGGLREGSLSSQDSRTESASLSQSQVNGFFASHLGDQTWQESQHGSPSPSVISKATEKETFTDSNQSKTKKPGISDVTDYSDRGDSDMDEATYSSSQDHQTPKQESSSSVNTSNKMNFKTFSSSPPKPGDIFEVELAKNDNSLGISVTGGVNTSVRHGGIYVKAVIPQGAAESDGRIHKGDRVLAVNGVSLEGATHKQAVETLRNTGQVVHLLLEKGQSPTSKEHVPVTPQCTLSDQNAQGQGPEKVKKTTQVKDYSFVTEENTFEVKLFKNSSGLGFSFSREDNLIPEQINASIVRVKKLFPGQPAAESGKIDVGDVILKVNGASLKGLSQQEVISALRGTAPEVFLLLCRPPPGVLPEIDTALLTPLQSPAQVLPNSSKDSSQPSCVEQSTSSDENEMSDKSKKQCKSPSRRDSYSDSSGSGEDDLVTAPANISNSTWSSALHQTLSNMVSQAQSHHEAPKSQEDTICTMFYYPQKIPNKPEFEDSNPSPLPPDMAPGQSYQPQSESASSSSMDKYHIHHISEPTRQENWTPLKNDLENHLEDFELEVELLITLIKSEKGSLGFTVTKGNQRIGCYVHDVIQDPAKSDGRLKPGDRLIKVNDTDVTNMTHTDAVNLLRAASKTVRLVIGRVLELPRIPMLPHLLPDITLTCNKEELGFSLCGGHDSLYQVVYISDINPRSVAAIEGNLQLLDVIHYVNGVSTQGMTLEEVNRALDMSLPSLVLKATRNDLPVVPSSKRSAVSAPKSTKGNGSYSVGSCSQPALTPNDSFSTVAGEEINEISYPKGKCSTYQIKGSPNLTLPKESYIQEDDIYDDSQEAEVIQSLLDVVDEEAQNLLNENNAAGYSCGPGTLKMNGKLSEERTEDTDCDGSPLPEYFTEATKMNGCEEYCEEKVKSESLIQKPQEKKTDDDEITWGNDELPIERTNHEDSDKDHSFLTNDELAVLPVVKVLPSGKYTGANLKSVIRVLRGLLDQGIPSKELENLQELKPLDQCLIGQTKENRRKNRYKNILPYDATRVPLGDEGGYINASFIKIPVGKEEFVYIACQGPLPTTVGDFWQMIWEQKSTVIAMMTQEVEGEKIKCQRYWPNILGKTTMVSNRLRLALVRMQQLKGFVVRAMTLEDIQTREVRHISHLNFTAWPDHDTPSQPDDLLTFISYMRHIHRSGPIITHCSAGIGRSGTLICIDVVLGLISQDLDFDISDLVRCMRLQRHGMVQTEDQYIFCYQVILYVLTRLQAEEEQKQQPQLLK

With “A2AC_HUMAN (Modified) (Biotin-DFRPSFKHILFRRARRGFRQ; not fully specified)”, the Classification in assay [1] (PDZ PTPL-1, PDZ Domain 5) is listed as 3 (A450 nm 2-3).

Take “QATSRNGHSARQHVVADTEL (Biotin-QATSRNGHSARQHVVADTEL) [CD34]”: the Classification in assay [2] (PDZ BAI-1, PDZ Domain 6) is given as 1 (A450 nm 0-1); in assay [2] (PDZ SHANK, PDZ Domain 1), 1 (A450 nm 0-1); in assay [3] (PDZ KIAA1634, PDZ Domain 5), 1 (A450 nm 0-1).

On to “ALVLIAFCIIRRRPSAYQAL (Biotin-ALVLIAFCIIRRRPSAYQAL) [CD68]”, for which the Classification in assay [4] (PDZ KIAA0807(S), PDZ Domain 1) was 5 (A450 nm of 4 more than 2× repeated); in assay [2] (PDZ BAI-1, PDZ Domain 2) it was 3 (A450 nm 2-3); in assay [2] (PDZ SHANK, PDZ Domain 1), 1 (A450 nm 0-1); in assay [3] (PDZ KIAA1634, PDZ Domain 1), 2 (A450 nm 1-2).

For `CC[C@H](C)[C@H](NC(=O)CNC(=O)[C@H](CO)NC(=O)[C@H](Cc1ccccc1)NC(=O)[C@@H](NC(=O)[C@H](CS)NC(=O)CNC(=O)CNC(=O)[C@H](C)NC(=O)[C@@H]1CCCN1C(=O)[C@@H](NC(=O)[C@@H]1CCCN1C(=O)CCCC[C@@H]1SC[C@@H]2NC(=O)N[C@@H]21)[C@@H](C)CC)[C@@H](C)O)C(=O)N[C@@H](Cc1ccccc1)C(=O)N1CCC[C@H]1C(=O)N[C@H](C(=O)N[C@@H](CC(C)C)C(=O)N[C@H](C(=O)N[C@@H](CO)C(=O)N1CCC[C@H]1C(=O)N[C@@H](CC(C)C)C(=O)O)[C@@H](C)O)[C@@H](C)O` [KIA 1481] (Biotin-PIPAGGCTFSGIFPTLTSPL-OH; C-terminus assumed), the Classification in assay [4] (PDZ KIAA0807(S), PDZ Domain 1) is reported as 5 (A450 nm of 4 more than 2× repeated); in assay [4] (setting [5]), 5 (A450 nm of 4 more than 2× repeated); in assay [2] (PDZ BAI-1, PDZ Domain 2), 2 (A450 nm 1-2); in assay [2] (PDZ BAI-1, PDZ Domain 4), 1 (A450 nm 0-1); in assay [2] (PDZ BAI-1, PDZ Domain 5), 3 (A450 nm 2-3); in assay [2] (PDZ BAI-1, PDZ Domain 6), 2 (A450 nm 1-2). The Classification in assay [2] (PDZ FLJ00011 (also printed FLJ 00011), PDZ Domain 1) was 2 (A450 nm 1-2); in assay [2] (PDZ Novel PDZ, PDZ Domain 1) it was 1 (A450 nm 0-1); in assay [2] (PDZ Novel PDZ, PDZ Domain 2) it was 1 (A450 nm 0-1); in assay [2] (PDZ SHANK, PDZ Domain 1), 5 (A450 nm of 4 more than 2× repeated); in assay [3] (PDZ KIAA1634, PDZ Domain 1) it was 2 (A450 nm 1-2); in assay [3] (PDZ KIAA1634, PDZ Domain 2), 1 (A450 nm 0-1). Further, in assay [3] (PDZ KIAA1634, PDZ Domain 5), the Classification was 1 (A450 nm 0-1).

On to “ARHRVTSYTSSSVNVSSNL (Biotin-ARHRVTSYTSSSVNVSSNL) [IL-8RB]”, for which the Classification in assay [2] (PDZ BAI-1, PDZ Domain 2) is listed as 1 (A450 nm 0-1); in assay [2] (PDZ BAI-1, PDZ Domain 6), 1 (A450 nm 0-1); in assay [2] (PDZ Novel PDZ, PDZ Domain 2) it was 1 (A450 nm 0-1); in assay [3] (PDZ KIAA1634, PDZ Domain 1), 1 (A450 nm 0-1); in assay [3] (PDZ KIAA1634, PDZ Domain 5) it was 1 (A450 nm 0-1).

On to “A2AA_HUMAN (modified) (Biotin-HDFRRAFKKILARGDRKRIV; not fully specified)”, for which the Classification is 1 (A450 nm 0-1) in assay [4] (PDZ KIAA0807(S), PDZ Domain 1); 3 (A450 nm 2-3) in assay [2] (PDZ BAI-1, PDZ Domain 6); 1 (A450 nm 0-1) in assay [2] (setting [6]); 1 (A450 nm 0-1) in assay [2] (setting [7]); 2 (A450 nm 1-2) in assay [1] (PDZ PTPL-1, PDZ Domain 2).

On to “RNIEEVYVGGKQVVPFSSSV (Biotin-RNIEEVYVGGKQVVPFSSSV) [Nedasin (s-form)]”, for which the Classification in assay [4] (PDZ KIAA807 (domain not given)) is listed as 2 (A450 nm 1-2); in assay [2] (PDZ BAI-1, PDZ Domain 2) it was 1 (A450 nm 0-1); in assay [2] (PDZ BAI-1, PDZ Domain 6), 1 (A450 nm 0-1); in assay [3] (PDZ KIAA1634, PDZ Domain 1), 1 (A450 nm 0-1).

Regarding “GPVPGEPAKPKTSAHHATFV (Biotin-GPVPGEPAKPKTSAHHATFV)”, the Classification in assay [2] (setting [6]) was 1 (A450 nm 0-1); in assay [1] (PDZ PTPL-1, PDZ Domain 4), 1 (A450 nm 0-1).

With `CC(C)C[C@H](NC(=O)[C@H](C)NC(=O)[C@@H](NC(=O)[C@@H](NC(=O)[C@H](Cc1c[nH]cn1)NC(=O)[C@H](CC(C)C)NC(=O)CNC(=O)[C@H](CCC(N)=O)NC(=O)CNC(=O)CNC(=O)[C@H](C)NC(=O)[C@H](C)NC(=O)[C@H](CCCNC(=N)N)NC(=O)[C@H](C)NC(=O)[C@H](CO)NC(=O)[C@H](CC(=O)O)NC(=O)[C@H](CC(=O)O)NC(=O)[C@H](Cc1c[nH]c2ccccc12)NC(=O)[C@H](C)NC(=O)CCCC[C@@H]1SC[C@@H]2NC(=O)N[C@@H]21)C(C)C)[C@@H](C)O)C(=O)O` [LPAP] (Biotin-AWDDSARAAGGQGLHVTAL-OH; C-terminus assumed), the Classification is 5 (A450 nm of 4 more than 2× repeated) in assay [4] (PDZ KIAA807); 2 (A450 nm 1-2) in assay [2] (PDZ BAI-1, PDZ Domain 2); 4 (A450 nm 3-4) in assay [2] (PDZ FLJ 00011, PDZ Domain 1); 1 (A450 nm 0-1) in assay [2] (setting [6]); 3 (A450 nm 2-3) in assay [2] (PDZ SHANK, PDZ Domain 1); 3 (A450 nm 2-3) in assay [2] (setting [7]). Besides, in assay [1] (PDZ PTPL-1, PDZ Domain 2), the Classification is given as 1 (A450 nm 0-1).

For “LASKSAEEGKQIPDSLSTDL (Biotin-LASKSAEEGKQIPDSLSTDL) [Dock2]”, the Classification in assay [2] (PDZ BAI-1, PDZ Domain 6) is 1 (A450 nm 0-1); in assay [2] (setting [6]), 1 (A450 nm 0-1); in assay [2] (PDZ SHANK, PDZ Domain 1), 1 (A450 nm 0-1); in assay [3] (PDZ KIAA1634, PDZ Domain 5), 1 (A450 nm 0-1).

On to “LNETTETQRTLLNGDLQTSI (Biotin-LNETTETQRTLLNGDLQTSI) [SSTR2 (somatostatin recepor 2)]”, for which the Classification in assay [4] (PDZ KIAA0807(S), PDZ Domain 1) was 2 (A450 nm 1-2); in assay [4] (setting [5]) it was 2 (A450 nm 1-2); in assay [2] (PDZ SHANK, PDZ Domain 1), 1 (A450 nm 0-1).

Take “GGGGGSGGGGGSGIESVKI [GLUR2 (glutamate receptor 2-modified)]”: the Classification in assay [4] (PDZ KIAA0807(S), PDZ Domain 1) is listed as 1 (A450 nm 0-1); in assay [3] (PDZ KIAA1634, PDZ Domain 1), 4 (A450 nm 3-4).

Consider `CC[C@H](C)[C@H](NC(=O)[C@H](CO)NC(=O)[C@@H](NC(=O)[C@H](Cc1ccccc1)NC(=O)[C@H](CO)NC(=O)CCCC[C@@H]1SC[C@@H]2NC(=O)N[C@@H]21)[C@@H](C)O)C(=O)N[C@@H](CC(C)C)C(=O)N[C@H](C(=O)N[C@@H](CS)C(=O)N[C@@H](Cc1c[nH]cn1)C(=O)N[C@@H](CCC(N)=O)C(=O)N[C@@H](CCCNC(=N)N)C(=O)N[C@@H](CCCNC(=N)N)C(=O)N[C@H](C(=O)N[C@@H](CCC(N)=O)C(=O)N[C@@H](CCCNC(=N)N)C(=O)N[C@@H](CCCCN)C(=O)N[C@@H](CCC(=O)O)C(=O)N[C@H](C(=O)N[C@H](C(=O)N[C@@H](C)C(=O)O)C(C)C)[C@@H](C)O)[C@@H](C)O)[C@@H](C)O` [GluR5-2 (rat)], for which the Classification in assay [4] (PDZ KIAA0807(S), PDZ Domain 1) was 1 (A450 nm 0-1); in assay [2] (PDZ BAI-1, PDZ Domain 2), 5 (A450 nm of 4 more than 2× repeated); in assay [3] (PDZ KIAA1634, PDZ Domain 1), 5 (A450 nm of 4 more than 2× repeated).

As to CKR5_HUMAN (ERASSVYTRSTGEQEISVGL), the Classification in assay [3] (PDZ KIAA1634, PDZ Domain 1) is 1 (A450 nm 0-1).

“KTMPAATYRLLTGQEQPVYL (Biotin-KTMPAATYRLLTGQEQPVYL) [MINT-3]”: the Classification in assay [4] (PDZ KIAA0807(S), PDZ Domain 1) is recorded as 1 (A450 nm 0-1); in assay [4] (setting [5]) it was 1 (A450 nm 0-1); in assay [2] (PDZ LIM Protein, PDZ Domain 1) it was 1 (A450 nm 0-1).

The values are drawn from patent publication US20050282743A1, “Molecular interactions in cells” (Arbor Vita Corporation, priority 2001, published 2005).
